According to US8481678B2, “Peptide-based tooth whitening reagents” (E I du Pont de Nemours and Company, priority 2009, dated 2013):
Where no end group is shown, it is not given here. The star is where a group is joined. Biotin = O=C1N[C@H]2[C@H](CS[C@H]2CCCCC(=O)*)N1

What was measured:
[1] = system: pellicle-coated HAP disks (tooth pellicle); test: Phage ELISA on pellicle-coated HAP disks; type: binding, human; conditions: over 10^10 pfu phage, TBST-0.5% washes, no-phage control 0.218
Excerpt: A total of 20 selected phage candidates (Example 1) were used in a phage ELISA experiment. Purified phage lysates were used for binding to pellicle-coated HAP disks using an anti-M13 phage antibody conjugated to horseradish-peroxidase, followed by the addition of chromogenic agent TMB (3,3′,5,5′-tetramethylbenzidine), obtained from Pierce Biotechnology (Item #34021; Rockford, Ill.). The plates were read at A450 nm.
For each phage candidate to be tested, the pellicle-coated HAP disks (3 mm diameter) was incubated for 1 h at room temperature with 200 μL of blocking buffer, consisting of 2% non-fat dry milk (Schleicher & Schuell, Inc.) in TBS. […] The tube was rinsed 6 times with wash buffer consisting of TBST-0.05%. The wells were filled with 200 μL of TBST-0.5% containing 1 mg/mL BSA (bovine serum albumin) and then 10 μL (over 10^10 pfu) of purified phage stock was added. The samples were incubated at room temperature for 60 min with slow shaking. The non-binding phage were removed by washing 6 times with TBST-0.5%. Then, 100 μL of horseradish peroxidase/anti-M13 antibody conjugate (Amersham USA, Piscataway, N.J.), diluted 1:500 in the blocking buffer, was added and incubated for 1 hour at room temperature. The conjugate solution was removed and was washed 6 times with TBST-0.5%.

[2] = system: pellicle coated bovine enamel; test: Phage ELISA on pellicle-coated bovine enamel (30 min in vivo pellicle), Example 13; type: binding, human; conditions: 10^11 pfu, 30 min at 37° C., normalized to an internal control
Experimental: A total of 29 selected phage candidates from Table 14 were used in phage ELISA Experiment to determine binding affinity and coverage of each phage on pellicle substrates. Purified phage lysates were used for binding to pellicle coated bovine enamel using an anti-M13 phage antibody conjugated to horseradish-peroxidase, followed by the addition of chromogenic agent TMB, obtained from Pierce Biotechnology (Rockford, Ill.). The plates were read at A450nm.
The wells were filled with 1 mL of 10^11 pfu purified phage stock which was prepared by diluting in blocking buffer. […] The non-binding phage was removed by washing 5 times with PBST. […] The conjugate solution was removed and was washed 3 times with PBST.

[3] = system: pellicle-coated enamel substrates; conditions: 20 μM synthetic biotinylated peptide, 30 min at 37° C.; normalized to DenP03; three replicates; no peptide −0.001
Experimental: A total of 20 synthetic peptides were manufactured using sequences obtained from Table 14. Peptides were obtained from Synbiosci (Livermore, Calif.) and included an additional SSRP sequence (SEQ ID NO: 151) at the N-terminus and biotin labeled lysine at the C-terminus.
Enamel substrates were cut to approx. 7 mm squares and mounted on wax mounting for incubation in the mouth for 30 min to form a pellicle coated surface. The pellicle-coated enamel substrates were removed from the wax backing and placed in well plates with the pellicle surface exposed as in Example 1. Each pellicle-coated substrate was incubated for 1 h at room temperature (˜22° C.) with 1 mL of blocking buffer, consisting of 1 mg/mL BSA in PBST (Pierce BupH™ #28372 with 0.1% TWEEN® 20). The blocking buffer was removed by aspirating the liquid out of each well. The tube was rinsed 2 times with wash buffer consisting of PBST. The wells were filled with 500 μL of 20 μM peptide solution which was prepared by diluting in blocking buffer. The samples were incubated for 30 min with slow shaking at 37° C. The non-binding peptide was removed by washing 6 times with PBST. Then, 500 μL of horseradish peroxidase/streptavidin conjugate (Pierce #22127), diluted 1:2000 in PBST, was added and incubated for 1 h at room temperature. The conjugate solution was removed and was washed 4 times with PBST.
Each enamel substrate was removed from the well and washed again in a 15-mL test tube with 10 mL of PBST. Each enamel substrate was then mounted in a clean well plate with only the enamel surface exposed. A 1:1 solution of TMB substrate and H2O2 (200 μL), obtained from Pierce Biotechnology (Rockford, Ill.) was added to each well and the color was allowed to develop for between 10 to 20 min, typically for 15 min, at room temperature (˜22° C.). Then, 100 μL of solution from each well was transferred to a 96-well reading plate containing stop solution (100 μL of 2 M H2SO4) in each well. The A450 was measured using a microplate spectrophotometer (Molecular Devices, Sunnyvale, Calif.). […] Each sequence was tested with three replicate enamel coated pellicle substrates.

Substance | O.D. at 450 nm [1] | O.D. at 450 nm (normalized) [2] | also measured
NPTDHIPANSTNSRVSKGNT (Tooth-binding peptide) [Pell 15] | 0.567 | – | –
NNTWPEGAGHTMPSTNIRQA (Tooth-binding peptide) [Pell 13] | 0.598 | – | –
VNPNWVETQALHQPPGNT (Synthetic oral-surface binding peptide) [DenP 20] | – | 1.298 | –
DLCSSPSTWGSCIR (Tooth-binding peptide) [Pell 6] | 0.735 | – | –
DECMEPLNAAHCWR (Tooth-binding peptide) [Pell 3] | 0.49 | – | –
AVVPADLNDHANHLS (Synthetic oral-surface binding peptide) [DenP 10] | – | 1.619 | –
SSRPQAAQVHMMQHSRPTTK(Biotin) [DenP13-A] | – | – | O.D. at 450 nm (normalized) [3]: 0.699
HDPNHLTHQARTIYRNANHT (Synthetic oral-surface binding peptide) [DenP 23] | – | 1.236 | –
DTIHPNKMKSPSSPL (Synthetic oral-surface binding peptide) [DenP 26] | – | 1.039 | –
NPTDSTHMMHARNHE (Tooth-binding peptide) [Pell 16] | 0.578 | – | –
APPTYQTASYPHNLPSKRKM (Synthetic oral-surface binding peptide) [DenP 28] | – | 1.203 | –
AHPESLGIKYALDGNSDPHA (Tooth-binding peptide) [Pell 1] | 0.739 | – | –
EPTHPTMRAQMHQSLRSSSP (Tooth-binding peptide) [Pell 8] | 0.712 | – | –
SSRPEFPYYNDNPPNPERHTLRK(Biotin) [DenP7-A] | – | – | O.D. at 450 nm (normalized) [3]: 0.356
SSRPTMTNHVYNSYTEKHSSTHRSK(Biotin) [DenP2-A] | – | – | O.D. at 450 nm (normalized) [3]: 0.273
NGPDMVQSVGKHKNS (Tooth-binding peptide) [Pell 10] | 0.729 | – | –
ELDHDSRHYMNGLQRKVT (Synthetic oral-surface binding peptide) [DenP 15] | – | 1.112 | –
SSRPTTGSSSQADTSASMSIVPAHK(Biotin) [DenP17-A] | – | – | O.D. at 450 nm (normalized) [3]: 0.143
SSRPVEPATKNMREARSSTQMRRIK(Biotin) [DenP4-A] | – | – | O.D. at 450 nm (normalized) [3]: 0.803
SSRPFDGIGLGTATRHQNRK(Biotin) [DenP12-A] | – | – | O.D. at 450 nm (normalized) [3]: 0.475

Substance | O.D. at 450 nm [1] | O.D. at 450 nm (normalized) [2] | also measured
SSRPTYQGVPSWPAVIDDAIRRK(Biotin) [DenP19-A] | – | – | O.D. at 450 nm (normalized) [3]: 0.712
TNDLHANPFTGTYIAPDPTS (Synthetic oral-surface binding peptide) [DenP 30] | – | 1.082 | –
SSRPDLGTFPNRTLKMAAHK(Biotin) [DenP11-A] | – | – | O.D. at 450 nm (normalized) [3]: 0.454
QAAQVHMMQHSRPTT (Synthetic oral-surface binding peptide) [DenP 13] | – | 0.845 | –
TPCATYPHFSGCRA (Tooth-binding peptide) [Pell 19] | 0.731 | – | –
ANELSTYAQTNPGSG (Synthetic oral-surface binding peptide) [DenP 25] | – | 0.909 | –
SSRPNGNNHTDIPNRSSYTGGSFAK(Biotin) [DenP1-A] | – | – | O.D. at 450 nm (normalized) [3]: 0.154
SSRPQVPDYLSPTHQKKAFLEIPTK(Biotin) [DenP29-A] | – | – | O.D. at 450 nm (normalized) [3]: 0.468
TPCAPASFNPHCSR (Tooth-binding peptide) [Pell 18] | 0.416 | – | –
DPNESNYENATTVSQPTRHL (Tooth-binding peptide) [Pell 7] | 0.831 | – | –
IYPNESMSTSNVRGPYHP (Synthetic oral-surface binding peptide) [DenP 22] | – | 1.420 | –
QHCITERLHPPCTK (Tooth-binding peptide) [Pell 17] | 0.614 | – | –
NGNNHTDIPNRSSYTGGSFA (Synthetic oral-surface binding peptide) [DenP 01] | – | 1.002 | –
WCTDFCTRSTPTSTSRSTTS (Tooth-binding peptide) [Pell 20] | 0.715 | – | –
EFPYYNDNPPNPERHTLR (Synthetic oral-surface binding peptide) [DenP 07] | – | 1.500 | –
GPQHVLMQDTHQGYAFDN (Synthetic oral-surface binding peptide) [DenP 16] | – | 2.190 | –
DLCSMQMMNTGCHY (Tooth-binding peptide) [Pell 5] | 0.83 | – | –
NPTATPHMKDPMHSNAHSSA (Tooth-binding peptide) [Pell 14] | 0.7 | – | –
TTGSSSQADTSASMSIVPAH (Synthetic oral-surface binding peptide) [DenP 17] | – | 0.971 | –
SNATMYNIQSHSHHQ (Synthetic oral-surface binding peptide) [DenP 24] | – | 0.979 | –

Substance | O.D. at 450 nm [1] | O.D. at 450 nm (normalized) [2] | also measured
KAPIANMLQPHSYQYSVA (Synthetic oral-surface binding peptide) [DenP 18] | – | 1.143 | –
NGPEVRQIPANFEKL (Tooth-binding peptide) [Pell 11] | 0.607 | – | –
DHNNRQHAVEVRENKTHTAR (Synthetic oral-surface binding peptide) [DenP 21] | – | 0.728 | –
DLGTFPNRTLKMAAH (Synthetic oral-surface binding peptide) [DenP 11] | – | 1.663 | –
ASVSNYPPIHHLATSNTTVN (Tooth-binding peptide) [Pell 2] | 0.75 | – | –
GNTDTTPPNAVMEPTVQHKW (Tooth-binding peptide) [Pell 9] | 0.755 | – | –
TYQGVPSWPAVIDDAIRR (Synthetic oral-surface binding peptide) [DenP 19] | – | 1.052 | –
YLLPKDQTTAPQVTPIVQHK (Synthetic oral-surface binding peptide) [DenP 05] | – | 1.087 | –
HKNAIQPVNDATTLDTTM (Synthetic oral-surface binding peptide) [DenP 09] | – | 1.364 | –
IPWWNIRAPLNAGGG [Control, reference compound] | – | 1.000 | –
HKNENIMQYNVNDRWHITPA (Synthetic oral-surface binding peptide) [DenP 32] | – | 1.441 | –
FDGIGLGTATRHQNR (Synthetic oral-surface binding peptide) [DenP 12] | – | 2.079 | –
QVPDYLSPTHQKKAFLEIPT (Synthetic oral-surface binding peptide) [DenP 29] | – | 0.976 | –
VEPATKNMREARSSTQMRRI (Synthetic oral-surface binding peptide) [DenP 04] | – | 1.421 | –
SEARARTFNDHTTPMPII (Synthetic oral-surface binding peptide) [DenP 14] | – | 2.498 | –
GMPTRYYHNTPPHLTPKF (Synthetic oral-surface binding peptide) [DenP 08] | – | 1.182 | –
NNTSADNPPETDSKHHLSMS (Tooth-binding peptide) [Pell 12] | 0.521 | – | –
TMTNHVYNSYTEKHSSTHRS (Synthetic oral-surface binding peptide) [DenP 02] | – | 1.951 | –
DECMHGSDVEFCTS (Tooth-binding peptide) [Pell 4] | 0.664 | – | –
